# From paper PMC9785202, “Changes in Disposition of Ezetimibe and Its Active Metabolites Induced by Impaired Hepatic Function: The Influence of Enzyme and Transporter Activities” (Pharmaceutics, 2022)
# Like-named read-outs stand apart in the source and are kept apart here. Marks after values point to notes of the source that are not given here.
# T1: OATP1B3 (Homo sapiens, UniProt Q9NPD5)
# T1 sequence (Q9NPD5 1-702): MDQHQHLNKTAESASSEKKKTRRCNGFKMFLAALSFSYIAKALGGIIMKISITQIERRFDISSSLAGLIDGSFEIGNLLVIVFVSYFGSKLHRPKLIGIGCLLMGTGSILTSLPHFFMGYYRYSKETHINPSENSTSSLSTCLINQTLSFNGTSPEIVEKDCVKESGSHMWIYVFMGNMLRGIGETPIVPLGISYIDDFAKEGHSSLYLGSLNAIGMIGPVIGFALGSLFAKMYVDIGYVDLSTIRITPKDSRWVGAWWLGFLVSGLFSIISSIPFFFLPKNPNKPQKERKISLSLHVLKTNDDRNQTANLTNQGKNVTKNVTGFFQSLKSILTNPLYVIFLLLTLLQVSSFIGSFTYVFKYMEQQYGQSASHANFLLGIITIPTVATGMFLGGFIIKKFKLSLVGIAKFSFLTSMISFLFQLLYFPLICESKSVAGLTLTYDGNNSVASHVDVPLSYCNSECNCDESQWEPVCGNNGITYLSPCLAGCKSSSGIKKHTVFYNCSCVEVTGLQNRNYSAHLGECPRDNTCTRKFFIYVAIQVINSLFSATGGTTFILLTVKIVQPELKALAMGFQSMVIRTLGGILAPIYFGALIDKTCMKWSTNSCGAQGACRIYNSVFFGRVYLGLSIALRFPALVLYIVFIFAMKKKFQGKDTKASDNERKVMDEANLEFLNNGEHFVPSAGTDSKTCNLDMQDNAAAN
# B1: OATP1B1 (Homo sapiens) (protein)
# chain: MDQNQHLNKTAEAQPSENKKTRYCNGLKMFLAALSLSFIAKTLGAIIMKSSIIHIERRFEISSSLVGFIDGSFEIGNLLVIVFVSYFGSKLHRPKLIGIGCFIMGIGGVLTALPHFFMGYYRYSKETNINSSENSTSTLSTCLINQILSLNRASPEIVGKGCLKESGSYMWIYVFMGNMLRGIGETPIVPLGLSYIDDFAKEGHSSLYLGILNAIAMIGPIIGFTLGSLFSKMYVDIGYVDLSTIRITPTDSRWVGAWWLNFLVSGLFSIISSIPFFFLPQTPNKPQKERKASLSLHVLETNDEKDQTANLTNQGKNITKNVTGFFQSFKSILTNPLYVMFVLLTLLQVSSYIGAFTYVFKYVEQQYGQPSSKANILLGVITIPIFASGMFLGGYIIKKFKLNTVGIAKFSCFTAVMSLSFYLLYFFILCENKSVAGLTMTYDGNNPVTSHRDVPLSYCNSDCNCDESQWEPVCGNNGITYISPCLAGCKSSSGNKKPIVFYNCSCLEVTGLQNRNYSAHLGECPRDDACTRKFYFFVAIQVLNLFFSALGGTSHVMLIVKIVQPELKSLALGFHSMVIRALGGILAPIYFGALIDTTCIKWSTNNCGTRGSCRTYNSTSFSRVYLGLSSMLRVSSLVLYIILIYAMKKKYQEKDINASENGSVMDEANLESLNKNKHFVPSAGADSETHC
# notes: host or cells: HEK293
# B2: OATP2B1 (Homo sapiens) (protein)
# chain: MGPRIGPAGEVPQVPDKETKATMGTENTPGGKASPDPQDVRPSVFHNIKLFVLCHSLLQLAQLMISGYLKSSISTVEKRFGLSSQTSGLLASFNEVGNTALIVFVSYFGSRVHRPRMIGYGAILVALAGLLMTLPHFISEPYRYDNTSPEDMPQDFKASLCLPTTSAPASAPSNGNCSSYTETQHLSVVGIMFVAQTLLGVGGVPIQPFGISYIDDFAHNSNSPLYLGILFAVTMMGPGLAFGLGSLMLRLYVDINQMPEGGISLTIKDPRWVGAWWLGFLIAAGAVALAAIPYFFFPKEMPKEKRELQFRRKVLAVTDSPARKGKDSPSKQSPGESTKKQDGLVQIAPNLTVIQFIKVFPRVLLQTLRHPIFLLVVLSQVCLSSMAAGMATFLPKFLERQFSITASYANLLIGCLSFPSVIVGIVVGGVLVKRLHLGPVGCGALCLLGMLLCLFFSLPLFFIGCSSHQIAGITHQTSAHPGLELSPSCMEACSCPLDGFNPVCDPSTRVEYITPCHAGCSSWVVQDALDNSQVFYTNCSCVVEGNPVLAGSCDSTCSHLVVPFLLLVSLGSALACLTHTPSFMLILRGVKKEDKTLAVGIQFMFLRILAWMPSPVIHGSAIDTTCVHWALSCGRRAVCRYYNNDLLRNRFIGLQFFFKTGSVICFALVLAVLRQQDKEARTKESRSSPAVEQQLLVSGPGKKPEDSRV
# notes: host or cells: HEK293
# Key:
# OATP1B3 = target: T1, OATP1B3; assay: Inhibition of OATP1B3-mediated uptake in OATP1B3-transfected HEK293 cells by bile acids and rifampicin
# rat primary hepatocytes = assay: Inhibition of EZE-Ph uptake into rat primary hepatocytes by bile acids and rifampicin; conditions: inhibitor 200 µmol/L, 10 μM EZE-Ph, 10 min
# Experimental: Rat primary hepatocytes were isolated from male SD rats as previously described [34]. Fresh rat hepatocytes (120,000 per well) were cultured in Williams’ E medium (containing 0.1 μM dexamethasone, 5% fetal bovine serum, 1% penicillin G/streptomycin, 1% GlutaMAX-I, and 1% insulin–transferrin–selenium) on collagen I-coated 48-well plates. Rat hepatocytes cultured for 4 h under a carbogen atmosphere were directly used for uptake assays.
# The hepatocytes were rinsed three times with HBSS (37 °C) and equilibrated in HBSS for 10 min. […] After 10 min of incubation, cells were quickly washed three times with ice-cold HBSS and then lysed by the addition of 300 μL of purified water. The protein content was measured using the BCA protein assay kit. EZE and EZE-Ph were analyzed by LC-MS/MS.
# The rates of substrate uptake were normalized using the protein contents of cell lysates.
# [1] = CCl4-induced hepatic failure rat model: liver index and serum ALT, AST, AKP; format: in vivo, Sprague–Dawley (SD) rats
# Experimental: All animal studies were carried out according to the Guide for the Care and Use of Laboratory Animals of the Shanghai Institute of Materia Medica, Chinese Academy of Sciences. Male Sprague–Dawley (SD) rats weighing 180 to 220 g were randomized into two groups. The CCl4-induced model group was administered an intraperitoneal injection of CCl4 (20% in corn oil) at a dose of 2.5 mL/kg three times a week for 8 weeks. The control group was treated intraperitoneally with the same volume of corn oil at the same time intervals. Blood samples were collected and centrifuged at 11,600 g for 5 min to obtain serum samples for the determination of serum ALT, AST, and AKP.
# Serum ALT, AST, and AKP were measured using the corresponding assay kits following the manufacturer’s instructions. Tissues fixed in 4% paraformaldehyde were embedded in paraffin, cut into slices with a 3 μm thickness, and stained with hematoxylin and eosin (H&E).
# [2] = Pharmacokinetics after intravenous or oral administration of 10 mg/kg EZE to control and CCl4-induced rats; format: in vivo; conditions: for AUC(0-t) / Cmax / Tmax / half-life: Sprague-Dawley, rat, plasma, 10 mg/kg
# Experimental: Animals were fasted for 12 h with free access to water before the experiments. EZE was administered orally (prepared in 0.5% carboxymethylcellulose sodium) or intravenously (dissolved in 10% dimethyl sulfoxide, 10% tween-80, and 80% sterile H2O) to CCl4-induced rats (n = 5) and control rats (n = 5) at 10 mg/kg. Blood samples were collected from the retro-orbital venous plexus before administration (0 h), at 5, 15, and 30 min, and at 1, 2, 4, 6, 8, 12, 24, and 48 h after administration in tubes containing EDTA-2K. Plasma samples were harvested by centrifugation at 11,600 g for 5 min at 4 °C and then stored at −80 °C until further analysis.
# A 25.0 μL aliquot of each sample and 25.0 μL of internal standard (50.0 ng/mL EZE-d4) were mixed with 100 μL of acetonitrile. After the samples were vortexed and centrifugated at 2250 g for 15 min, the supernatants were used to measure EZE and its metabolites by LC-MS/MS.
# WinNonlin version 6.1 (Pharsight Corp., Cary, NC, USA) was used to calculate the pharmacokinetic parameters in a non-compartmental model. Statistical comparisons between the two groups were evaluated using a Student’s two-tailed unpaired t-test or the nonparametric Mann–Whitney test in GraphPad Prism (version 8.0, GraphPad Software Inc, SanDiego, CA, USA). A value of p < 0.05 was considered significant. All data were presented as the mean ± S.D. (n ≥ 3).
# [3] = for Autosampler stability (4°C, 24 h), RE / Post-extraction stability (room temperature 3 h), RE / Freeze-thaw stability (−20°C, three cycles), RE / Short-term stability (room temperature 3 h), RE: n = 6; for Freeze-thaw stability (−20°C, three cycles), RE / Short-term stability (room temperature 3 h), RE: rat plasma
# Experimental: The instrument parameters were as follows: ion spray voltage, −4500 V; source temperature, 550 °C; nebulizer gas, 60 psi; heater gas, 60 psi; and curtain gas, 40 psi. […] Data were acquired and processed with the Analyst 1.6.3 software (Applied Biosystems). The standard curve ranges were 1.00 to 1000 ng/mL for EZE, 3.00 to 3000 ng/mL for EZE-Ph, and 1.00 to 1000 ng/mL for EZE-Hy in plasma.
# Summary of the stability of ezetimibe and its metabolites in rat plasma (n = 6).
# [4] = substrate: O=C(O)C1OC(Oc2ccc([C@@H]3[C@@H](CC[C@H](O)c4ccc(F)cc4)C(=O)N3c3ccc(F)cc3)cc2)C(O)C(O)C1O; assay: Uptake of EZE-Ph into OATP1B1-transfected HEK293 cells; format: in vitro ADME, human; conditions: other: OATP1B1 HEK293, uptake time 5 min; 37.0 °C
# Experimental: (§1) The kinetic parameters and the half inhibitory concentration (IC50) were calculated using GraphPad Prism. […] The intrinsic clearance (CLint) was calculated as CLint = Vmax/Km.
# [5] = substrate: O=C(O)C1OC(Oc2ccc([C@@H]3[C@@H](CC[C@H](O)c4ccc(F)cc4)C(=O)N3c3ccc(F)cc3)cc2)C(O)C(O)C1O; assay: Uptake of EZE-Ph into OATP2B1-transfected HEK293 cells; format: in vitro ADME, human; conditions: other: OATP2B1 HEK293, uptake time 5 min; 37.0 °C
# Experimental: as §1
# [6] = CCl4-induced rats vs control rats
# [7] = serum, CCl4-induced rats, n = 16
# [8] = iv, i.v. 10 mg/kg EZE, CCl4-induced rats
# [9] = iv, i.v. 10 mg/kg EZE, control rats
# [10] = po, p.o. 10 mg/kg EZE, CCl4-induced rats
# [11] = po, p.o. 10 mg/kg EZE, control rats
# [12] = oral administration of 10 mg/kg EZE
molecule,measurement,setting,value
"C[C@H](CCC(=O)NCCS(=O)(=O)O)[C@H]1CC[C@H]2[C@@H]3[C@@H](O)C[C@@H]4C[C@H](O)CC[C@]4(C)[C@H]3CC[C@]12C [TUDCA, tauroursodeoxycholic acid]",IC50,OATP1B3,26 µM
"CO[C@H]1/C=C/O[C@@]2(C)Oc3c(C)c(O)c4c(O)c(c(/C=N/N5CCN(C)CC5)c(O)c4c3C2=O)NC(=O)/C(C)=C\C=C\[C@H](C)[C@H](O)[C@@H](C)[C@@H](O)[C@@H](C)[C@H](OC(C)=O)[C@@H]1C [rifampicin, reference compound]",EZE-Ph uptake by rat hepatocytes in the presence of inhibitor,rat primary hepatocytes,12.0%
same,uptake of estradiol-17β-glucuronide in OATP1B3-expressing HEK293 cells in the presence of inhibitor,"OATP1B3; inhibitor 200 μM, substrate estradiol-17β-glucuronide",3.89%
"C[C@H](CCC(=O)O)[C@H]1CC[C@H]2[C@@H]3[C@H](O)C[C@@H]4C[C@H](O)CC[C@]4(C)[C@H]3CC[C@]12C [CDCA, chenodeoxycholic acid]",IC50,OATP1B3,8.92 µM
"C[C@H](CCC(=O)NCC(=O)O)[C@H]1CC[C@H]2[C@@H]3[C@@H](O)C[C@@H]4C[C@H](O)CC[C@]4(C)[C@H]3CC[C@]12C [GUDCA, glycoursodeoxycholic acid]",IC50,OATP1B3,46.1 µM
"C[C@H](CCC(=O)O)[C@H]1CC[C@H]2[C@@H]3[C@@H](O)C[C@@H]4C[C@H](O)CC[C@]4(C)[C@H]3CC[C@]12C [UDCA, ursodeoxycholic acid]",IC50,OATP1B3,25.5 µM
"C[C@H](CCC(=O)O)[C@H]1CC[C@H]2[C@@H]3[C@H](O)C[C@@H]4C[C@H](O)CC[C@]4(C)[C@H]3C[C@H](O)[C@]12C [CA, cholic acid]",IC50,OATP1B3,121 µM
"ClC(Cl)(Cl)Cl [CCl4, Carbon tetrachloride]","serum AKP, fold higher than in control rats",[1]; [6],3.86 fold
same,"serum ALT, fold higher than in control rats",[1]; [6],8.62 fold
same,"serum AST, fold higher than in control rats",[1]; [6],5.76 fold
same,Liver weight/body weight,"[1]; CCl4-induced rats, 8 weeks of treatment, n = 16",37.9 ± 5.9 ^c
same,AKP,[1]; [7],9887 ± 1633 ^d U/L
same,ALT,[1]; [7],112 ± 33 ^d U/L
same,AST,[1]; [7],125 ± 34 ^d U/L
"CC(CCC(=O)NCC(=O)O)C1CCC2C3C(O)CC4CC(O)CCC4(C)C3CCC12C (stereo not drawn) [GCDCA, glycochenodeoxycholic acid]",IC50,OATP1B3,15.1 µM
"O=C(O)[C@H]1O[C@@H](O[C@@H](CC[C@H]2C(=O)N(c3ccc(F)cc3)[C@@H]2c2ccc(O)cc2)c2ccc(F)cc2)[C@H](O)[C@@H](O)[C@@H]1O [EZE-Hy, ezetimibe hydroxy β-D-glucuronide]",AUC(0-t),[2]; [8],4250 ± 2050 ng·h/mL
same,Cmax,[2]; [8],146 ± 42 ng/mL
same,Tmax,[2]; [8],11.2 ± 7.6 h
same,half-life,[2]; [8],15.3 ± 2.4 h
same,AUC(0-t),[2]; [9],992 ± 392 ng·h/mL
same,Cmax,[2]; [9],36.9 ± 9.6 ng/mL
same,Tmax,[2]; [9],16.8 ± 6.6 h
same,half-life,[2]; [9],16.1 ± 7.6 h
same,AUC(0-t),[2]; [10],1170 ± 418 ng·h/mL
same,Cmax,[2]; [10],38.1 ± 10.1 ng/mL
same,Tmax,[2]; [10],14.4 ± 5.4 h
same,AUC(0-t),[2]; [11],463 ± 160 ng·h/mL
same,Cmax,[2]; [11],24.6 ± 9.9 ng/mL
same,Tmax,[2]; [11],12 h
same,"AUC0–t, fold higher in CCl4-induced rats than in control rats",[2]; intravenous injection of 10 mg/kg EZE,4.3 fold
same,"AUC0–t, fold higher in CCl4-induced rats than in control rats",[2]; [12],2.5 fold
same,share in plasma relative to the main circulating component EZE-Ph,[2]; [12],11%
same,"Autosampler stability (4°C, 24 h), RE",[3]; HQC (800/2400/800 ng/ml),9.0%
same,"Post-extraction stability (room temperature 3 h), RE",[3]; HQC (800/2400/800 ng/ml),5.2%
same,"Autosampler stability (4°C, 24 h), RE",[3]; LQC (3.00/9.00/3.00 ng/ml),7.9%
same,"Post-extraction stability (room temperature 3 h), RE",[3]; LQC (3.00/9.00/3.00 ng/ml),8.9%
same,stability in rat plasma under the test conditions,"[3]; LQC and HQC samples, short-term, post-extraction, auto-sampler, three freeze/thaw cycles",stable
same,"Freeze-thaw stability (−20°C, three cycles), RE",[3]; HQC (800/2400/800 ng/ml),2.0%
same,"Short-term stability (room temperature 3 h), RE",[3]; HQC (800/2400/800 ng/ml),-3.6%
same,"Freeze-thaw stability (−20°C, three cycles), RE",[3]; LQC (3.00/9.00/3.00 ng/ml),-0.1%
same,"Short-term stability (room temperature 3 h), RE",[3]; LQC (EZE/EZE-Ph/EZE-Hy 3.00/9.00/3.00 ng/ml),-6.9%
same,stability in blood,[3]; room temperature for 2 h,stable
B1,Km,[4],91.5 µM
same,Vmax,[4],5.17e-05 µmol/min/mg
same,Vmax/Km,[4],0.56 µL/min/mg
B2,Km,[5],119 µM
same,Vmax,[5],6.69e-05 µmol/min/mg
same,Vmax/Km,[5],0.56 µL/min/mg
